Experimental data taken from patent publication US20230357261A1, “ARYL HYDROCARBON RECEPTOR LIGANDS AND THEIR ANALOGUES FOR THE PREVENTION AND TREATMENT OF INFLAMMATORY DISORDERS” (The Johns Hopkins University, priority 2020, published 2023).
“Also recorded” adds a separate entry of the source. Values belong to the molecule of their own block, whether it stands above or below them.

How the values were obtained:
TLR4 = TLR4 signaling in mouse ileal enteroids (LPS-induced Tnf-a qRT-PCR); type: cell-based; conditions: wildtype mouse enteroids; tested compound 40 uM overnight, then LPS 50 μg/mL 6 hours
Procedure: (§1) Primary intestinal crypt cultures (enteroids) were generated from the ileum of neonatal (p7-p11) wild type and Ahr′ mice at as described, Neal et al., 2012, and maintained in Matrigel (Corning). The enteroids were digested and passed using TrypLE Express (Gibco) weekly, and used between passage 3 and 10 for all experiments. The enteroids were pre-treated with I3C ([…], 12 h), A18 (20 μM, 12 h) or human breast milk (100 μL/mL, Innovative Research, prepared by 5-minute-cenrifugation at 12,000 g and then filtration of supernatant through a 0.22-μm filter) and then treated with LPS (50 μg/mL) for 4 hours for further analysis.
(§2) Primary intestinal crypt cultures (enteroids) were generated from the ileum of neonatal (p7-p11) mice at as described, Neal et al., 2012, and maintained in Matrigel (Corning). The enteroids were digested and passed using TrypLE Express (Gibco) weekly, and used between passage 3 and 10 for all experiments. The enteroids were pre-treated with tested compound (40 uM, overnight) and then treated with LPS (50 μg/mL) for 6 hours for further analysis.
(§3) Total RNA was isolated using the RNeasy mini kit (Qiagen) and complementary DNA was synthesized from 0.5 μg RNA using QuantiTect Reverse Transcription kit (Qiagen) following the manufacturer's protocols. The mRNA quantification was performed on the Bio-Rad CFX96 Real-Time System (Bio-Rad) using iTaq™ universal SYBR® Green supermix (Bio-Rad) and the primers listed in Table 2. The relative mRNA expression levels were normalized against the expression of the housekeeping gene ribosomal protein lateral stalk subunit P0 (Rplp0).

AHR [1] = assay: AHR activation (Cyp1a1) in ileum of mice in the NEC model (Example 3); type: in vivo; conditions: mouse NEC model; 20 mg/kg/day by oral gavage for 4 days
Source text: (§4) Experimental NEC was induced in 7-day old mice as we have previously described, Good et al., 2015; Sodhi et al., 2018; Egan et al., 2016, by gavage feeding newborn mice with formula containing Similac Advance infant formula (Abbott Nutrition): Esbilac (PetAg) canine milk replacer, 2:1 ratio, which was supplemented with enteric bacteria made from a stock created from a specimen obtained from an infant with surgical NEC five times per day.
(§5) Additionally, the mice were subjected to hypoxia (5% 02-95% N2) for 10 min in a hypoxia chamber (Billups-Rothenberg) twice daily for 4 days. The compound #169, compound #243, compound #247 or compound #263 administered by oral gavage during the induction of NEC at the dose of 20 mg/kg body weight/day.
(§6) Age-matched breast milk-fed mouse pups were used as healthy controls. Evaluation of ileal histology by H&E staining and expression of pro-inflammatory cytokines by qRT-PCR at a fixed point in the terminal ileum 2-cm proximal to the cecum, were used to determine the disease severity.
as §3

AHR [2] = assay: AHR activation in mouse ileal enteroids (Cyp1a1 qRT-PCR); type: cell-based; conditions: wildtype mouse enteroids, tested compound 40 uM, overnight
Procedure: as §1, §2, §3

mouse NEC model = assay: Experimental NEC in newborn mice (Example 3); type: in vivo; conditions: 20 mg/kg body weight/day for 4 days; for severity of NEC: 20 mg/kg/day
Source text: as §4, §5, §6, §3

melting point: 155 to 157 °C
SMILES: Cc1c(Oc2ccccc2)ccnc1CS(=O)(=O)c1nc2ccc(F)cc2[nH]1 [compound 28, 5-fluoro-2-(((3-methyl-4-phenoxypyridin-2-yl)methyl)sulfonyl)-1H-benzo[d]-imidazole]

melting point: 185 to 188 °C
SMILES: Cc1c(OCc2ccccc2)ccnc1CS(=O)(=O)c1nc2ccc(F)cc2[nH]1 [compound 29, 5-fluoro-2-(((3-methyl-4-benzyloxypyridin-2-yl)methyl)sulfonyl)-1H-benzo[d]-imidazole]

expression of Cyp1a1 in vivo (ileum) (AHR [1]): did not induce the expression of Cyp1a1
activation of AHR signaling in mouse enteroids (Cyp1a1, FIG. 15a) (AHR [2]): activated AHR
activation of AHR signaling in mouse enteroids (Cyp1a1, FIG. 15a) (AHR [2]; listed as #169): activated AHR signaling
SMILES: Cc1cc2c(=O)n(Cc3ccco3)c(SCc3nc4ccccc4[nH]3)nc2s1 [compound #169]
inhibition of TLR4 signaling in mouse enteroids (Tnf-a induction by LPS, FIG. 15b, FIG. 19) (TLR4): significantly inhibited TLR4 signaling
histological injury (H&E, ileum) (mouse NEC model): reduced histological injury
severity of NEC (mouse NEC model): did not reduce the severity of NEC; also recorded: didn't not reduce the severity of NEC

expression of Cyp1a1 in vivo (ileum) (AHR [1]): did not induce the expression of Cyp1a1
activation of AHR signaling in mouse enteroids (Cyp1a1, FIG. 15a) (AHR [2]): activated AHR signaling
SMILES: c1ccc2[nH]c(CSc3ncnc4ccccc34)nc2c1 [compound #243]
inhibition of TLR4 signaling in mouse enteroids (Tnf-a induction by LPS, FIG. 15b, FIG. 19) (TLR4): significantly inhibited TLR4 signaling
histological injury (H&E, ileum) (mouse NEC model): reduced histological injury
severity of NEC (mouse NEC model): did not reduce the severity of NEC; also recorded: didn't not reduce the severity of NEC

activation of AHR signaling in mouse enteroids (Cyp1a1, FIG. 15a) (AHR [2]): activated AHR signaling
SMILES: c1ccc2[nH]c(COc3ncnc4ccccc34)nc2c1 [compound #247]
inhibition of TLR4 signaling in mouse enteroids (Tnf-a induction by LPS, FIG. 15b, FIG. 19) (TLR4): significantly inhibited TLR4 signaling
expression of Cyp1a1 in vivo (ileum) (AHR [1]): significantly induced the expression of Cyp1a1
histological injury (H&E, ileum) (mouse NEC model): reduced histological injury
severity of NEC (mouse NEC model): did not reduce the severity of NEC; also recorded: didn't not reduce the severity of NEC

Second part, the molecule before the results:

SMILES: c1ccc2[nH]c(CSc3ncnc4ccccc34)nc2c1
melting point: 198 to 200 °C (dec.)

SMILES: Cc1ccc2nc(SCc3nccc(OCC(F)(F)F)c3C)[nH]c2c1 [compound 18, 5-methyl-2-(((3-methyl-4-(2,2,2-trifluoroethoxy)pyridin-2-yl)methyl)thio)-1H-benzo[d]imidazole]
melting point: 153 to 155 °C

SMILES: Cc1c(OCC(F)(F)F)ccnc1CSc1nc2ccc(C#N)cc2[nH]1 [compound 19, 5-cyano-2-(((3-methyl-4-(2,2,2-trifluoroethoxy)pyridin-2-yl)methyl)thio)-1H-benzo[d]-imidazole]
melting point: 204 to 205 °C

SMILES: COc1ccnc(CSc2nc3ccc(F)cc3[nH]2)c1C [compound 20, 5-fluoro-2-(((3-methyl-4-methoxypyridin-2-yl)methyl)thio)-1H-benzo[d]imidazole]
melting point: 153 to 155 °C

SMILES: CCOc1ccnc(CSc2nc3ccc(F)cc3[nH]2)c1C [compound 21, 5-fluoro-2-(((3-methyl-4-ethoxypyridin-2-yl)methyl)thio)-1H-benzo[d]imidazole]
melting point: 102 to 104 °C

SMILES: Cc1c(Oc2ccccc2)ccnc1CSc1nc2ccc(F)cc2[nH]1 [compound 22, 5-fluoro-2-(((3-methyl-4-phenoxypyridin-2-yl)methyl)thio)-1H-benzo[d]imidazole]
melting point: 134 to 136 °C

SMILES: Cc1c(OCc2ccccc2)ccnc1CSc1nc2ccc(F)cc2[nH]1 [compound 23, 5-fluoro-2-(((3-methyl-4-benzyloxypyridin-2-yl)methyl)thio)-1H-benzo[d]-imidazole]
melting point: 175 to 177 °C

SMILES: Cc1ccc2nc([S+]([O-])Cc3nccc(OCC(F)(F)F)c3C)[nH]c2c1 (stereo not shown) [compound 24, 5-methyl-2-(((3-methyl-4-(2,2,2-trifluoroethoxy)pyridin-2-yl)methyl)sulfinyl)-1H-benzo[d]-imidazole]
melting point: > 133 °C (dec.)

SMILES: Cc1ccc2nc(S(=O)(=O)Cc3nccc(OCC(F)(F)F)c3C)[nH]c2c1 [compound 25, 5-methyl-2-(((3-methyl-4-(2,2,2-trifluoroethoxy)pyridin-2-yl)methyl)sulfonyl)-1H-benzo[d]-imidazole]
melting point: 193 to 194 °C

SMILES: COc1ccnc(CS(=O)(=O)c2nc3cc(F)ccc3[nH]2)c1C [compound 26, 5-fluoro-2-(((3-methyl-4-methoxypyridin-2-yl)methyl)sulfonyl)-1H-benzo[d]-imidazole]
melting point: 192 to 193 °C

SMILES: CCOc1ccnc(CS(=O)(=O)c2nc3ccc(F)cc3[nH]2)c1C [compound 27, 5-fluoro-2-(((3-methyl-4-ethoxypyridin-2-yl)methyl)sulfonyl)-1H-benzo[d]-imidazole]
melting point: 177 to 178 °C

SMILES: N#C/C(=C(/N)c1ncnc2ccccc12)c1nc2ccccc2[nH]1 [compound #263]
inhibition of TLR4 signaling in mouse enteroids (Tnf-a induction by LPS, FIG. 15b, FIG. 19) (TLR4): significantly inhibited the TLR4 signaling
expression of Cyp1a1 in vivo (ileum) (AHR [1]): significantly induced the expression of Cyp1a1
expression of IL-1b, IL-6, Tnf-a and Lcn2 in the intestinal epithelium (mouse NEC model): reduced expression
histological injury (H&E, ileum) (mouse NEC model): reduced histological injury
severity of NEC (mouse NEC model): significantly reduced the severity of experimental NEC; also recorded: protects against experimental NEC
